Test results: paper PMC11259170, “Small-molecule probe for IBD risk variant GPR65 I231L alters cytokine signaling networks through positive allosteric modulation” (Science Advances, 2024)
Where two headings read alike, the source gives them in different places.

Key:
[1] = system: human PBMCs; assay: cAMP detection in human PBMCs; format: cell-based; conditions: 0 to 50 μM, 30 min, pH 7.2
Description: Human blood samples were collected from healthy donors at the Blood Donor Center at Massachusetts General Hospital in compliance with all relevant ethical regulations and according to protocol 2018P001504 approved by the Mass General Brigham Institutional Review Board. Donors provided informed written consent. Human PBMCs were isolated by density gradient separation using Ficoll-Paque PLUS (VWR- GE Life Sciences, catalog no. 17144002), as previously described ([54]). Isolated PBMCs were incubated overnight in DMEM (10% FBS, 0.2% sodium bicarbonate, 1X Glutamax) at 37°C, 5% CO2. Human monocytes were isolated from an unpurified Buffy Coat using RosetteSep human monocyte enrichment cocktail (StemCell Technologies, 15068) and frozen same day in FBS with 10% DMSO.
cAMP was measured in cells using the Lance Ultra cAMP Kit. Compound dose curves were prepared in an assay buffer, which was made according to the manufacturer’s guidelines using DMEM instead of HBSS. Assay buffer was adjusted to desired pH using 1 M HCl or NaOH. PBMCs were collected, centrifuged, and resuspended in assay buffer. Dose curves and cells were added to a white opaque OptiPlate (PerkinElmer, 6007290) at a density of 20,000 cells per well. […] Eu-cAMP tracer and FRET emissions were read using a PerkinElmer EnVision Multimode plate reader (ENVISION21040010). […]

[2] = target: T1, hGPR65 (Homo sapiens, UniProt Q8IYL9); assay: cAMP detection in HeLa expression cell line, hGPR65; format: cell-based; conditions: for Emax: HeLa, relative to 100uM forskolin (100%) and DMSO (0%), read-out: hGPR Max Activity %
T1 construct: expressed in transfected cells; host or cells: HeLa (ATCC CCL-2), lentiviral transduction, pLX317
Method in brief: (§1)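 Lentivirally transduced HeLa, V5-tagged GPCR, puromycin 3 μg/ml. 1500 cells/well, stimulation buffer pH 7.2, compound (10 mM DMSO stock), 30 min RT. Lyse, detection reagents 1 h dark RT. TR-FRET cAMP kit, ex 337, em 620/665.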

[3] = target: T1, hGPR65; assay: cAMP detection (Lance Ultra), GPR65 KO HeLa reconstituted with hGPR65; 21K screen dose confirmation; format: cell-based
[4] = Solubility in phosphate buffer; format: physicochemical; conditions: read-out: Solubility
[5] = target: T1, hGPR65; assay: cAMP detection (Lance Ultra), GPR65 KO HeLa reconstituted with hGPR65; 21K screen dose confirmation; format: cell-based; conditions: primary hit validation
Description: (§2) The Lance Ultra cAMP Kit (PerkinElmer, TRF0264) was used for cAMP detection, and included the following reagents: ULight anti-cAMP antibody, Eu-cAMP tracer, 7.5% BSA Stabilizer solution, and cAMP detection buffer. Stimulation buffer was prepared as described by the kit manufacturer as follows: Hanks buffered saline solution (HBSS, Life Technologies, 14025-126) containing 0.5 mM IBMX (3-isobutyl-1-methylxanthine, Sigma-Aldrich, I7018) and buffered with 1 M Hepes (15630-080). Stimulation buffer was then adjusted to pH 7.1 using 12 N HCl. HeLa cells were lifted using Versene and then suspended at 2.5 × 10^5 cells/ml in stimulation buffer. Cells were then plated at 20 μl per well (5000 cells per well) in white, opaque OptiPlate 384-well MicroPlates (PerkinElmer, 6007299) using a Thermo Fisher Scientific Combi liquid dispenser. Compounds, stored at 5 mM in DMSO for the primary screen, or in a range of concentrations from 39 μM to 20 mM for dose curves, were transferred by the CyBio CyBi-Well Vario pin transfer tool with 100-nl pins (V&P FP1NS50H, 50-nl slot, 0.457-mm diameter, hydrophobic coated), into each assay well, 100 nl per well for a final assay concentration of 25 μM for the primary screen, or 195 nM to 100 μM for dose curves. Assay plates were then incubated at RT for 30 min. Eu-cAMP tracer was diluted 1:33 into detection buffer and the final solution then distributed into assay wells, 5 μl per well. ULight anti-cAMP antibody was diluted 1:100 into detection buffer, then distributed into assay wells, also 5 μl per well. Assay plates were then incubated at RT in the dark for 1 hour. Eu-cAMP tracer and Förster resonance energy transfer (FRET) emissions were then read using a PerkinElmer EnVision Multimode plate reader (ENVISION21040010), exciting each well at 320 nm [UV2 (TRF) 320 filter] and reading emissions at 615 nm (Europium 615 filter) and 665 nm (APC665 filter). Data analysis was performed using Genedata Screener and GraphPad Prism.
(§3) HeLa KO cell lines were generated using the px330 plasmid CRISPR system as previously described ([18]). Briefly, HeLa cells were transfected with a Cas9 vector containing a gene-specific single-guide RNA to target the GPR65 coding exon. Forty-eight to 72 hours after transfection, single clones were obtained through limiting dilution and then sequenced to validate the KO. Reconstituted cell lines were produced by transducing KO cells with empty lentivirus or lentivirus containing hGPR65 or mGPR65. After 48 hours, cells were treated with puromycin (3 μg/ml; InvivoGen, ant-pr-1) and resistant cells were used in experiments.

[6] = target: T2, human GPR4 (hGPR4) (Homo sapiens, UniProt P46093); assay: cAMP detection in HeLa expression cell line, hGPR4; format: cell-based; conditions: highest concentration tested
T2 construct: expressed in transfected cells; host or cells: HeLa (ATCC CCL-2), lentiviral transduction, pLX317
Description: HeLa stable expression cell lines were produced by lentiviral transduction. Briefly, lentiviral plasmids for each GPCR with a C-terminal V5 Tag ([…]) were made in a pLX317 backbone using competent Escherichia coli (New England Biolabs, C3050H). Lenti-X 293 T (Takara, 632810) cells were transfected with the lentiviral plasmids to produce virus. Low-passage HeLa cells (American Type Culture Collection, CCL-2) were then transduced with lentivirus. After 48 hours, HeLa cells were cultured under selection with puromycin (3 μg/ml) and allowed to recover and expand before storing stocks in liquid nitrogen.
cAMP was measured in cells using the Lance Ultra cAMP Kit. HeLa cells were cultured under puromycin (3 μg/ml) selection. One day before the experiment, cells were seeded in T75 flasks and allowed to adhere overnight. On the day of the experiment, cells were washed twice with Dulbecco’s PBS and lifted using prewarmed 1× versene solution (Gibco, 15040066). Cells were counted in HBSS (Gibco, 14025092) and then resuspended in stimulation buffer prepared according to the manufacturer’s instructions and adjusted to pH 7.2 using 1 M sodium hydroxide. Cells were added to the plate at a density of 1500 cells per well in white opaque 384-well assay ready microplates containing 100 nl of 10 mM compound in DMSO. Cells were stimulated for 30 min at RT, then lysed and incubated with detection reagents for 1 hour in the dark at RT. Plates were read on BMG Labtech PHERAstar FSX (excitation, 337 nm; emission, 620 and 665 nm). Data analysis was performed using GraphPad Prism.

[7] = Lipophilicity (logD); format: physicochemical; conditions: pH 7.4; pH7.4; read-out: LogD (pH7.4)
[8] = system: GPR65 KO HeLa cells + pLX empty vector; assay: cAMP detection, GPR65 KO HeLa + empty pLX vector (null control); format: cell-based, human
Description: as §2, §3

[9] = target: T3, mGPR65 (Mus musculus, UniProt Q61038); assay: cAMP detection in HeLa expression cell line, mGPR65; format: cell-based; conditions: for Emax: HeLa, relative to 100uM forskolin (100%) and DMSO (0%), read-out: mGPR Max Activity %; for EC50: mGPR EC50 (uM)
T3 construct: expressed in transfected cells; host or cells: HeLa (ATCC CCL-2), lentiviral transduction, pLX317
Method in brief: as §1

T1 sequence (Q8IYL9 whole entry): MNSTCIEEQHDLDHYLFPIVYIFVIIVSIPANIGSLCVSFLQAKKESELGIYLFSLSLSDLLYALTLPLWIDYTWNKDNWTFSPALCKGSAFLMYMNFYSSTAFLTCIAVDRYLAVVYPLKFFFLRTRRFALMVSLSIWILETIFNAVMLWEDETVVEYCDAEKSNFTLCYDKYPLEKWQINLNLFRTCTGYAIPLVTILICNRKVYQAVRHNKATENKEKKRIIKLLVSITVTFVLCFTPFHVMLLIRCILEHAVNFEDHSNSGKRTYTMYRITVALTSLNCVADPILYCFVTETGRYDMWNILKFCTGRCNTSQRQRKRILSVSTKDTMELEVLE
T3 sequence (Q61038 whole entry): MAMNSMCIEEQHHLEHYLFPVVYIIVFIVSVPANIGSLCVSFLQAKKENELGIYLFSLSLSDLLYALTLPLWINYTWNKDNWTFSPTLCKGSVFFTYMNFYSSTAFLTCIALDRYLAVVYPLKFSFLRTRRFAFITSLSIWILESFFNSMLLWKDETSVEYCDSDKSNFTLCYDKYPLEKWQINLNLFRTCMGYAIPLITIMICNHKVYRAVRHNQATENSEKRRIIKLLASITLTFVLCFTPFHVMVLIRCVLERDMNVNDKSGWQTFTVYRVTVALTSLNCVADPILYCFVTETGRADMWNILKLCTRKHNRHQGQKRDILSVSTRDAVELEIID
T2 sequence (P46093 whole entry): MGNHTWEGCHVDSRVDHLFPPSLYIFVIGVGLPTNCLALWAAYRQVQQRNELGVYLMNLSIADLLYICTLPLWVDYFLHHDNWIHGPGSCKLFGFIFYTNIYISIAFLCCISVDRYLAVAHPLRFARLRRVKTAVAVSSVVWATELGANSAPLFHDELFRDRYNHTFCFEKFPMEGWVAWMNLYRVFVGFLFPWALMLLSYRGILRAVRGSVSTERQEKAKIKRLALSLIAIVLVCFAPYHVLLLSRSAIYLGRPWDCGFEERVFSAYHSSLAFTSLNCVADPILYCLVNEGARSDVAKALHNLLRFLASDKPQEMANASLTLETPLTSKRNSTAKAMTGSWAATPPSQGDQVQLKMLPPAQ

COCc1ccc(-c2cc(O)n3ncc(C(=O)Nc4ccc(C)cc4)c3n2)cc1 [BRD2813, COCc1ccc(cc1)-c1cc(O)n2ncc(C(=O)Nc3ccc(C)cc3)c2n1]
cAMP production in human PBMCs, compared [1]: outperformed BTB09089
Emax ([2]; 1st hGPR column pair, NA = no activity): 78.8%
Emax ([2]; 2nd hGPR column pair, NA = no activity): 79.2%
EC50 ([2]; hGPR EC50 (uM), NA = no activity): 0.866 µM
EC50 ([2]; hGPR EC50 (uM), pH 7.2, 30 min): 1.2 µM
EC50 ([2]; hGPR EC50, NA = no activity): 0.993 µM
EC50 ([2]; hGPR EC50, pH 7.2, 30 min): 0.724 µM
pH of greatest compound effect ([3]; 0-50 μM, pH curves): between pH 7.1 and 7.3
cAMP response, BRD2813 compared with BTB09089 ([3]; 0 to 50 μM, pH 7.2): greater cAMP response
shift in the pH response curve of GPR65 ([3]; increasing concentrations, 0 to 50 μM): leftward shift
solubility [4]: < 1.56 µM
cAMP activity in hGPR65-expressing cells [5]: dose-dependent activity
cAMP relative to DMSO in the hGPR4 cells [6]: decrease in cAMP
logD [7]: > 4.65
EC50 ([8]; Homo sapiens, 0.5 h, HeLa GPR65 KO + pLX, pH 7.1, 30 min, normalized to DMSO and 100 μM forskolin): > 100000 nM
cAMP production in control cells ([8]; primary hit validation): without inducing cAMP production
Emax ([9]; 2nd mGPR column pair, NA = no activity): 39.6%
Emax ([9]; NA = no activity): 35.8%
EC50 ([9]; first pair of columns, pH 7.2, 30 min): 0.942 µM
EC50 ([9]; second pair of columns, pH 7.2, 30 min): 0.406 µM
EC50 ([9]; NA = no activity): 0.693 µM
